The record followed here is patent publication US20230365533A1, “BICYCLOHEPTANE PYRROLIDINE OREXIN RECEPTOR AGONISTS” (MERCK SHARP & DOHME CORP., priority 2021, published 2023).

The target of the first experiment is T1, human OX2R (Homo sapiens, UniProt O43614).
T1 construct: expressed in transfected cells; host or cells: CHO (Chinese hamster ovary) cells, grown under G418 selection
T1 sequence (O43614 1-444): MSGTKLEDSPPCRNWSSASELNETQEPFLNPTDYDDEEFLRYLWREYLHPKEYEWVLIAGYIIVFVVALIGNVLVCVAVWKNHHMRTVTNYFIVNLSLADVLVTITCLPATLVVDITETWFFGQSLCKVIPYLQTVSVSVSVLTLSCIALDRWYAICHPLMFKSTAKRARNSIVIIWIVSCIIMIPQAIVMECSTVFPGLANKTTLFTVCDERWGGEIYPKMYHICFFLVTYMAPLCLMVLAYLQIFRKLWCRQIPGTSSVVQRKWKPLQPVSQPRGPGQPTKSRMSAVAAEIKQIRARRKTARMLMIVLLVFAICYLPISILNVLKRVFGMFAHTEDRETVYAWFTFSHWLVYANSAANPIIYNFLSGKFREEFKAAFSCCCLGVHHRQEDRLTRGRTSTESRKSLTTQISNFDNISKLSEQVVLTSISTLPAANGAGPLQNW
The experiment can be described thus: IPOne (IP-1) orexin receptor agonist assay in CHO cells expressing human OX2R. Type of experiment: cell-based. As to conditions: CHO, percent of mean max effect of a reference compound at 1 uM with 100% activity vs Orexin A, human OX2R. The source says: The utility of the compounds in accordance with the present invention as orexin receptor OX1R and/or OX2R agonists may be readily determined without undue experimentation by methodology well known in the art. Both the OX1R and/or OX2R G-coupled protein receptors (GPCRs) couple through the Gaq signaling pathway, which ultimately promotes calcium mobilization via inositol triphosphate (IP3) production. The half-life of IP-3 is relatively short, being rapidly metabolized to inositol monophosphate (IP-1), which can be readily detected using a commercially available assay kit (IP-One; Cisbio; cat #621PAPEC) coupled with a cell line expressing the target receptor(s) of interest. The utility of the compounds in accordance with the present invention as orexin receptor OX1R and/or OX2R agonists may be determined utilizing this assay.
In a typical experiment, the OX1 and OX2 receptor agonist activity is determined in accordance with the following general experimental method. Chinese hamster ovary (CHO) cells expressing human OX1R and/or the human OX2R were grown in Iscove's modified DMEM containing glutaMAX™, 1% G418, 100 U/mL penicillin, 100 μg/mL streptomycin and 10% heat-inactivated qualified fetal bovine serum (FBS). The OX2R cells were seeded at 10,000 cells/well/50 μL and the OX1R cells were seeded at 20,000 cells/well/50 μL into 384-well white tissue culture plates (Greiner; cat #781080). All cell/media reagents were from GIBCO-Invitrogen Corp. The seeded cell plate(s) were incubated at 37° C. with 5% CO2 and 85% humidity for 20-24 hours. On the day of the assay, assay-ready compound plates were prepared using an acoustic liquid handler (ECHO; Labcyte), which dispensed sufficient volume of test compound stock (10 mM in DMSO) or 100% DMSO to prepare 10 point, ½-log dilutions in a final volume of 202.5 nL/well in all test wells of a 384-well diamond plate (Labcyte). Following completion of assay-ready plates, importantly, the next three steps were performed with minimal delay: 1) 20 μl of 1×stimulation buffer was added to the compound plate using a Multidrop Combi (small cassette, Thermo Fisher Scientific cat #24073290); 2) culture medium was removed from the cell plate using the Bluewasher plate washer (gentle spin; BlueCatBio); 3) 14 μl of compound/stimulation buffer mixture was added to the cell plate using a Bravo liquid handler (Agilent) prior to incubating cell plates at 37° C. with 5% CO2 and 85% humidity for 1 or 2 hours (OX1R and OX2R, respectively). During this incubation, IP-one detection reagents were prepared (38:1:1 lysis buffer:D2:AB-cryptate reagents). Six μL of mixed detection reagents were added to the cell plate using a Multidrop Combi (small cassette, Thermo Fisher Scientific cat #24073290) and incubated 60 minutes at room temperature in the dark. Fluorescence signal was detected using an Envision plate reader (Perkin Elmer) [LANCE/DELFIA Dual Enh (Em: APC 665; Ex: Cy5 620)].
For each compound, data were fit to a four parameter logistic fit (ActivityBase software) and the EC50 was reported as the inflection point of the resulting curve. Percent effect for each test compound was determined as the percentage of sample raw value/mean max effect, where the mean max effect was derived from the mean raw value of 32 control wells per assay plate (using Orexin A (cat #003-30) at 1 μM for human OX1R and a reference compound at 1 uM with 100% activity previously established by comparison to Orexin A for human OX2R). The intrinsic orexin receptor agonist activity of a compound which may be used in the present invention may be determined by these assays.
Usually Emax stands for the maximal effect, on the per cent scale that the assay sets. Consider `COC(=O)N1CC[C@H](NS(C)(=O)=O)[C@@H]1COC1CCC2(c3ncccn3)CC2C1` (mixture of isomers) [Example 21, methyl (2R,3S)-3-(methylsulfonamido)-2-(((6-(pyrimidin-2-yl)bicyclo[4.1.0]heptan-3-yl)oxy)methyl)pyrrolidine-1-carboxylate], for which the maximal effect (Emax) was 94.6%.
In turn, `COC(=O)N1[C@H](C)C[C@H](NS(=O)(=O)N(C)C)[C@@H]1COC1CCC2(c3ncc(F)cn3)CC2C1` (single isomer, unassigned) [Example 167] returned a maximal effect (Emax) of 74.4%.

Staying with this experiment, now noted: IPOne assay, CHO cells expressing human OX2R, 2 hours incubation; read-out: hoX2R_IP IC50.
A word on the IC50: it is the concentration that gives 50% inhibition. For `COC(=O)N1[C@@H]2COC[C@@H]2C(NS(C)(=O)=O)[C@@H]1COC1CCC2(c3ncc(F)cn3)CC2C1` (mixture of isomers) [Example 134, methyl (2R,3aS,6aS)-2-(((6-(5-fluoropyrimidin-2-yl)bicyclo[4.1.0]heptan-3-yl)oxy)methyl)-3-(methylsulfonamido)hexahydro-1H-furo[3,4-b]pyrrole-1-carboxylate], the concentration for half-maximal inhibition (IC50) was determined as 83.7 nM.
Same read-out and setting: the figure for `COC(=O)N1[C@H](C)C[C@H](NS(=O)(=O)N(C)C)[C@@H]1COC1CCC2(c3cccc(F)c3)CC2C1` (mixture of isomers) [Example 3, methyl (2R,3S,5R)-3-((N,N-dimethylsulfamoyl)amino)-2-(((6-(3-fluorophenyl)bicyclo[4.1.0]heptan-3-yl)oxy)methyl)-5-methylpyrrolidine-1-carboxylate] is 187 nM; for `COC(=O)N1CC[C@H](NS(C)(=O)=O)[C@@H]1COC1CCC2(c3ncccn3)CC2C1` (mixture of isomers) [Example 21, methyl (2R,3S)-3-(methylsulfonamido)-2-(((6-(pyrimidin-2-yl)bicyclo[4.1.0]heptan-3-yl)oxy)methyl)pyrrolidine-1-carboxylate] it is 1620 nM; for `COC(=O)N1[C@H](C)C[C@H](NS(=O)(=O)N(C)C)[C@@H]1COC1CCC2(c3cnccn3)CC2C1` (single isomer, unassigned) [Example 11] it is 146 nM.
Same read-out and setting: the figure for `COC(=O)N1[C@H](C)C[C@H](NS(=O)(=O)N(C)C)[C@@H]1COC1CCC2(c3cnccn3)CC2C1` (single isomer, unassigned) [Example 14] is 161 nM; for `CC(C)OC(=O)N1[C@H](C)C[C@H](NS(C)(=O)=O)[C@@H]1CO[C@H]1CC[C@@]2(c3ncc(F)cn3)C[C@H]2C1` (single isomer, unassigned) [Example 28] it is 3.4 nM; for `CC(C)OC(=O)N1[C@H](C)C[C@H](NS(C)(=O)=O)[C@@H]1CO[C@@H]1CC[C@]2(c3ncc(F)cn3)C[C@@H]2C1` (single isomer, unassigned) [Example 29] it is 8 nM.
Same read-out and setting: next, `COC(=O)N1[C@H](C)C[C@H](NS(=O)(=O)C(F)F)[C@@H]1CO[C@H]1CC[C@@]2(c3ncccn3)C[C@H]2C1` (single isomer, unassigned) [Example 68]: 1.5 nM; `COC(=O)N1[C@H](C)C[C@H](NS(=O)(=O)C(F)F)[C@@H]1CO[C@@H]1CC[C@]2(c3ncccn3)C[C@@H]2C1` (single isomer, unassigned) [Example 69]: 20.4 nM.
`COC(=O)N1[C@H](C)C[C@H](NS(=O)(=O)C(F)F)[C@@H]1CO[C@H]1CC[C@@]2(c3ncc(Cl)cn3)C[C@H]2C1` (single isomer, unassigned) [Example 78]: the IC50 worked out at 1.2 nM.
Turning to `COC(=O)N1[C@H](C)C[C@H](NS(C)(=O)=O)[C@@H]1CO[C@@H]1CC[C@]2(c3ncc(F)cn3)C[C@@H]2C1` (single isomer, unassigned) [Example 136], the IC50 stood at 24.5 nM.
As for `COC(=O)N1[C@H](C)C[C@H](NS(C)(=O)=O)[C@@H]1CO[C@H]1CC[C@@]2(c3ncc(F)cn3)C[C@H]2C1` (single isomer, unassigned) [Example 137], the IC50 stood at 1.4 nM.
The same measure, in the same setting: the figure for `COC(=O)N1[C@H](C)C[C@H](NS(C)(=O)=O)[C@@H]1CO[C@@H]1CC[C@]2(c3ncc(Cl)cn3)C[C@@H]2C1` (single isomer, unassigned) [Example 141] is 86.4 nM; for `COC(=O)N1[C@H](C)C[C@H](NS(C)(=O)=O)[C@@H]1CO[C@H]1CC[C@@]2(c3ncc(Cl)cn3)C[C@H]2C1` (single isomer, unassigned) [Example 142] it is 2.8 nM; for `COC(=O)N1[C@H](C)C[C@H](NS(C)(=O)=O)[C@@H]1CO[C@H]1CC[C@@]2(c3nccs3)C[C@H]2C1` (single isomer, unassigned) [Example 146] it is 50.7 nM.
On the same count and under the same terms, next, `COC(=O)N1[C@H](C)C[C@H](NS(=O)(=O)N(C)C)[C@@H]1COC1CCC2(c3ncc(F)cn3)CC2C1` (single isomer, unassigned) [Example 167]: 575 nM; `CC(C)OC(=O)N1[C@H](C)C[C@H](NS(=O)(=O)N(C)C)[C@@H]1CO[C@@H]1CC[C@]2(c3ncccn3)C[C@@H]2C1` (single isomer, unassigned) [Example 170]: 5.2 nM.
The same measure, in the same setting: the figure for `CC(C)OC(=O)N1[C@H](C)C[C@H](NS(=O)(=O)N(C)C)[C@@H]1CO[C@H]1CC[C@@]2(c3ncccn3)C[C@H]2C1` (single isomer, unassigned) [Example 171] is 2.3 nM.
In the case of `COC(=O)N1[C@H](C)C[C@H](NS(=O)(=O)N(C)C)[C@@H]1COC1CCC2(c3cc(F)cc(F)c3)CC2C1` (stereo partly drawn) [Example 4, methyl (2R,3S,5R)-2-(((6-(3,5-difluorophenyl)bicyclo[4.1.0]heptan-3-yl)oxy)methyl)-3-((N,N-dimethylsulfamoyl)amino)-5-methylpyrrolidine-1-carboxylate], the IC50 stood at 604 nM.
On the same count and under the same terms, the figure for `COC(=O)N1[C@H](C)C[C@H](NS(=O)(=O)N(C)C)[C@@H]1COC1CCC2(c3ccc(C#N)cc3)CC2C1` (stereo partly drawn) [Example 5, methyl (2R,3S,5R)-2-(((6-(4-cyanophenyl)bicyclo[4.1.0]heptan-3-yl)oxy)methyl)-3-((N,N-dimethylsulfamoyl)amino)-5-methylpyrrolidine-1-carboxylate] is 278 nM; for `COC(=O)N1[C@H](C)C[C@H](NS(=O)(=O)N(C)C)[C@@H]1COC1CCC2(c3ncccn3)CC2C1` (stereo partly drawn) [Example 6, methyl (2R,3S,5R)-3-((N,N-dimethylsulfamoyl)amino)-5-methyl-2-(((6-(pyrimidin-2-yl)bicyclo[4.1.0]heptan-3-yl)oxy)methyl)pyrrolidine-1-carboxylate] it is 0.94 nM.
Still for that read-out and setting: next, `COC(=O)N1[C@H](C)C[C@H](NS(=O)(=O)N(C)C)[C@@H]1COC1CCC2(c3ncccn3)C(C1)C2(F)F` (stereo partly drawn) [Example 7, methyl (2R,3S,5R)-2-(((7,7-difluoro-6-(pyrimidin-2-yl)bicyclo[4.1.0]heptan-3-yl)oxy)methyl)-3-((N,N-dimethylsulfamoyl)amino)-5-methylpyrrolidine-1-carboxylate]: 9390 nM.
Same read-out and setting: next, `COC(=O)N1[C@H](C)C[C@H](NS(=O)(=O)N(C)C)[C@@H]1COC1CCC2(c3ccccn3)CC2C1` (stereo partly drawn) [Example 9, methyl (2R,3S,5R)-3-((N,N-dimethylsulfamoyl)amino)-5-methyl-2-(((6-(pyridin-2-yl)bicyclo[4.1.0]heptan-3-yl)oxy)methyl)pyrrolidine-1-carboxylate]: 28.8 nM; `COC(=O)N1[C@H](C)C[C@H](NS(=O)(=O)N(C)C)[C@@H]1COC1CCC2(c3cnccn3)CC2C1` (stereo partly drawn) [Example 10, methyl (2R,3S,5R)-3-((N,N-dimethylsulfamoyl)amino)-5-methyl-2-(((6-(pyrazin-2-yl)bicyclo[4.1.0]heptan-3-yl)oxy)methyl)pyrrolidine-1-carboxylate]: 323 nM.
